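The compound was tested at five concentrations on cells cultured in 96-well plates, with a 48-hour exposure period. At the TGI there is no net growth.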
Assays:
Assay in all cases: NCI anticancer screen, dose series, 48 h
786-0 renal = test system: 786-0 renal
A549 NSCLC = test system: A549 NSCLC
ACHN renal = test system: ACHN renal
BT-549 breast = test system: BT-549 breast
CCRF-CEM leukemia = test system: CCRF-CEM leukemia
COLO 205 colon = test system: COLO 205 colon
DU-145 prostate = test system: DU-145 prostate
EKVX NSCLC = test system: EKVX NSCLC
HCC-2998 colon = test system: HCC-2998 colon
HCT-116 colon = test system: HCT-116 colon
HCT-15 colon = test system: HCT-15 colon
HL-60(TB) leukemia = test system: HL-60(TB) leukemia
HOP-62 NSCLC = test system: HOP-62 NSCLC
HS 578T breast = test system: HS 578T breast
HT29 colon = test system: HT29 colon
IGROV1 ovarian = test system: IGROV1 ovarian
K-562 leukemia = test system: K-562 leukemia
KM12 colon = test system: KM12 colon
MCF7 breast = test system: MCF7 breast
MDA-MB-231 breast = test system: MDA-MB-231 breast
MDA-MB-435 = test system: MDA-MB-435
MDA-N = test system: MDA-N
MOLT-4 leukemia = test system: MOLT-4 leukemia
NCI-H226 lung = test system: NCI-H226 lung
NCI-H23 lung = test system: NCI-H23 lung
NCI-H460 lung = test system: NCI-H460 lung
NCI-H522 lung = test system: NCI-H522 lung
NCI/ADR-RES ovarian = test system: NCI/ADR-RES ovarian
OVCAR-3 ovarian = test system: OVCAR-3 ovarian
OVCAR-4 ovarian = test system: OVCAR-4 ovarian
OVCAR-8 ovarian = test system: OVCAR-8 ovarian
PC-3 prostate = test system: PC-3 prostate
RPMI-8226 leukemia = test system: RPMI-8226 leukemia
RXF 393 renal = test system: RXF 393 renal
SF-268 CNS = test system: SF-268 CNS
SF-295 CNS = test system: SF-295 CNS
SF-539 CNS = test system: SF-539 CNS
SK-MEL-28 melanoma = test system: SK-MEL-28 melanoma
SK-MEL-5 melanoma = test system: SK-MEL-5 melanoma
SK-OV-3 ovarian = test system: SK-OV-3 ovarian
SN12C renal = test system: SN12C renal
SNB-19 CNS = test system: SNB-19 CNS
SNB-75 CNS = test system: SNB-75 CNS
SR leukemia = test system: SR leukemia
SW-620 colon = test system: SW-620 colon
T-47D breast = test system: T-47D breast
TK-10 renal = test system: TK-10 renal
U251 CNS = test system: U251 CNS
UACC-257 melanoma = test system: UACC-257 melanoma
UACC-62 melanoma = test system: UACC-62 melanoma
UO-31 renal = test system: UO-31 renal
CAKI-1 renal = test system: CAKI-1 renal
HOP-92 NSCLC = test system: HOP-92 NSCLC
LOX IMVI melanoma = test system: LOX IMVI melanoma
M14 melanoma = test system: M14 melanoma
OVCAR-5 ovarian = test system: OVCAR-5 ovarian
SK-MEL-2 melanoma = test system: SK-MEL-2 melanoma
A498 renal = test system: A498 renal
MALME-3M melanoma = test system: MALME-3M melanoma

Measured: TGI

COc1ccc(C2CC(=O)Oc3ccccc3O2)cc1 (stereo not drawn)
93.2 µM: NCI-H522 lung
not listed: CAKI-1 renal | HOP-92 NSCLC | LOX IMVI melanoma | M14 melanoma | OVCAR-5 ovarian | SK-MEL-2 melanoma | A498 renal | MALME-3M melanoma
> 100 µM: all other assays above

Cc1ccc(S(=O)(=O)[N-]C2C(=O)c3ccccc3C(=O)C2[n+]2cccc(C(N)=O)c2)cc1 (stereo not drawn)
59.4 µM: COLO 205 colon
36 µM: HCT-116 colon
not listed: A498 renal | MALME-3M melanoma
> 100 µM: all other assays above

Cc1ccc(C)c(/C(=N\N=C(N)N)C2CC2)c1
59.8 µM: MDA-N
82.7 µM: HCT-116 colon
69.6 µM: K-562 leukemia
75 µM: SF-539 CNS
95.3 µM: BT-549 breast
66.7 µM: NCI-H23 lung
36.2 µM: U251 CNS
63.9 µM: MDA-MB-435
47.9 µM: NCI-H460 lung
35.4 µM: HCC-2998 colon
not listed: CCRF-CEM leukemia | HL-60(TB) leukemia
> 100 µM: all other assays above

CN1CC2=C(NC(=S)NC2c2ccc(Cl)cc2)/C(=C/c2ccc(Cl)cc2)C1 (stereo not drawn)
40.3 µM: HS 578T breast
34 µM: HCC-2998 colon | HT29 colon
38.2 µM: KM12 colon
30.1 µM: MDA-MB-435
33.3 µM: COLO 205 colon | U251 CNS
33.9 µM: SK-MEL-28 melanoma
32.6 µM: IGROV1 ovarian
52.3 µM: 786-0 renal
37.8 µM: OVCAR-8 ovarian
57.9 µM: ACHN renal
31.2 µM: SNB-75 CNS
33.6 µM: M14 melanoma
31.4 µM: OVCAR-5 ovarian | SK-OV-3 ovarian
50.4 µM: SF-268 CNS
51.5 µM: SR leukemia
29.3 µM: OVCAR-3 ovarian
37.5 µM: HCT-15 colon
32.7 µM: K-562 leukemia
32.4 µM: CAKI-1 renal
26.8 µM: SK-MEL-5 melanoma
23.1 µM: PC-3 prostate
30.5 µM: DU-145 prostate
39.8 µM: MDA-MB-231 breast
68.8 µM: EKVX NSCLC
34.9 µM: MDA-N
30.9 µM: CCRF-CEM leukemia
68.4 µM: MCF7 breast
36.4 µM: HOP-62 NSCLC | SN12C renal
62.9 µM: SF-539 CNS
30.2 µM: MOLT-4 leukemia | SK-MEL-2 melanoma
28.1 µM: NCI-H460 lung
92.4 µM: RPMI-8226 leukemia
48.6 µM: BT-549 breast
35.8 µM: LOX IMVI melanoma
43.8 µM: NCI-H23 lung
> 100 µM: TK-10 renal | UO-31 renal
43.2 µM: UACC-257 melanoma
31 µM: NCI-H522 lung
29.2 µM: HCT-116 colon
32.3 µM: T-47D breast
43.6 µM: NCI/ADR-RES ovarian
45.1 µM: A549 NSCLC
33.8 µM: SF-295 CNS | UACC-62 melanoma
36.8 µM: MALME-3M melanoma
48 µM: HL-60(TB) leukemia
30.3 µM: SW-620 colon

— PubChem BioAssay (NCI)
